Several values for one entry are separate records, joined by “and”; a condition that tells them apart may be missing. Equal values may be shown once.
How the values were obtained:
AhR = biological target: T1, AhR (Homo sapiens, UniProt P35869); assay: EROD assay (7-ethoxy-resorufin-O-deethylase; CYP1A1 activity) in human HepG2 cells; format: cell-based; conditions: for EC90: HepG2, human HepG2 cells
T1 construct: host or cells: human HepG2 cells
T1 sequence (P35869 11-848): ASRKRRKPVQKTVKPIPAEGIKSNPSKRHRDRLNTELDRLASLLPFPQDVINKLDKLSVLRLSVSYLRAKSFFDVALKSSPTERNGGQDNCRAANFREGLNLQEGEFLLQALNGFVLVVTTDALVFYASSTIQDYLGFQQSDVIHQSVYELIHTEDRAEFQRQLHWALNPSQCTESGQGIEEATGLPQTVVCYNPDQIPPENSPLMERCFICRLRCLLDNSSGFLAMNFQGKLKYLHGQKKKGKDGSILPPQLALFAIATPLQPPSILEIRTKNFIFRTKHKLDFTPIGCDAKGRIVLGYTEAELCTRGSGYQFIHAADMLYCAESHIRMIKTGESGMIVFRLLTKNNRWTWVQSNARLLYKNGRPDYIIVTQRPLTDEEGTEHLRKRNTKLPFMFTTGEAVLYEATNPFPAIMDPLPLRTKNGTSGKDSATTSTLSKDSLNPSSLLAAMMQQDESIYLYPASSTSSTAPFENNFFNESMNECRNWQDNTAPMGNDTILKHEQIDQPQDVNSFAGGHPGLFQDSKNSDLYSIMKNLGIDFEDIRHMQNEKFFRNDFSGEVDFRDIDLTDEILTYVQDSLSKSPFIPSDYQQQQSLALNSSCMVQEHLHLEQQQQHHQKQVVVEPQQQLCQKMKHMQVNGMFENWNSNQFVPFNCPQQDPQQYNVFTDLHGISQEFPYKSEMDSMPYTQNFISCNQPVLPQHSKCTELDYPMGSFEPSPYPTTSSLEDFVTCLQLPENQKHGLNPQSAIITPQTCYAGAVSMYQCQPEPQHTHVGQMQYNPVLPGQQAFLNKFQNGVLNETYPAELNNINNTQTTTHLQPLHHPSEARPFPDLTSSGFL
Description: CYP1A1 induction is under the control of the AhR signaling pathway. This Example describes an in vitro assay (7-ethoxy-resorufin-O-deethylase (EROD) assay) that evaluated the AhR modulating activities of the indole compounds described herein. In this assay, the indole compounds were incubated with human HepG2 cells or mouse Hepa1-6 cells. The activity of CYP1A1 in the cells was measured by the conversion of substrate 7-ethoxyresorufin, with the readout being a fluorescence signal associated with the conversion product. The EC50 values of the indole compounds as well as the maximum luminescence induced by them in the assay were determined.
Human HepG2 cells were obtained from Sigma Aldrich (Catalog 85011430-1VL).
Human HepG2 cells were grown to 60-80% confluency in tissue culture flasks, lifted with non-enzymatic cell dissociation solution (cell stripper), seeded in a 384-well plate at 5,000 cells per well, treated with the test compounds, and incubated for 20 hours overnight at 37° C. The treatment medium was removed and a solution of substrate 7-ethoxyresorufin (ETX) was added to initiate the reaction. The plate was incubated at 37° C. for 30 minutes. The reaction was subsequently terminated by adding tempered methanol. Fluorescent emission was measured at 590 nm with excitation at 530 nm in a FLEXSTATION III instrument (Molecular Devices).

human hepatocytes = assay: Hepatocyte intrinsic clearance assay (metabolic stability), human hepatocytes; format: in vitro ADME; conditions: for EH (hepatic extraction ratio) / CLint: Human Hepatocytes; for EH (hepatic extraction ratio): well stirred liver model, fu=1; for CLint: 1 μM test compound
Source text: (§1) The liver is an important organ in the body for drug metabolism. This Example describes hepatocyte intrinsic clearance assays using both human and rat hepatocytes to evaluate the metabolic stability of the indole compounds disclosed herein. The parameters measured include t1/2 (half-life), CLint (intrinsic clearance), and EH (hepatic extraction ratio).
(§2) Testosterone (Lot FE111011-01) was obtained from Cerilliant (Round Rock, Tex.). 7-hydroxycoumarin (Lot 11631ED) was obtained from Sigma Aldrich (St. Louis, Mo.). Cryopreserved human hepatocytes pooled from ten donor males (X008001), cryopreserved male IRC/CD-1 mouse hepatocytes (M005052), INVITROGRO HI Medium (incubation), and INVITROGRO HT Medium (thawing) were obtained from Bioreclamation IVT (Baltimore, Md.). All solvents were obtained from commercial sources and used without further purification.
(§3) Each test compound was prepared as a 1 mM stock solution in DMSO. A 2 μM solution of test compound and positive controls were prepared in INVITROGRO HI Medium (incubation). These solutions were pre-warmed in a sterile incubator set to maintain 37° C., 5% CO2, and 98% humidity. Cryopreserved hepatocytes were prepared at a concentration of 2×10^6 living cells/mL in incubation media and pre-warmed in the incubator. The compound solutions and hepatocyte mixtures were then combined at a ratio of 1:1 (v:v). The final volume of the reaction mixture was 750 μL, containing 1 μM test compound (10 μM for 7-hydroxycoumarin) and […]. The reaction mixture was placed in the incubator on a plate shaker. After 0, 15, 30, 60, 90, and 120 minutes of incubation, 100 μL of reaction mixtures were removed from the incubation plate and mixed with 150 μL of ice-cold acetonitrile in a designated well of a 96-well crash plate. The 96-well crash plate was placed on ice for 15 min, and samples were centrifuged (3,600 RPM, 10 min, 4° C.) to precipitate protein. The supernatants were diluted 1:1 (v:v) with water containing 0.15 μM verapamil and/or 1 μM tolbutamide (internal standards for positive and negative modes, respectively) in a 96-well shallow injection plate. This plate was sealed for LC-MS analysis. All measurements were done in duplicate.
(§4) The residual compound remaining (% R) was determined from LC-MS peak areas by comparison to the zero time point. Metabolic half-life (t1/2) and intrinsic clearance (CLint) values were calculated from the slope of the plot of ln (% R) vs. time and the concentration of hepatocytes present in the incubation. Percent remaining at 60 minutes was calculated by plugging in the 60 minute value into the slope equation generated by the percent remaining time points.
(§5) In vivo hepatic clearance CLH was calculated using the well stirred liver model according to the following equation:
(§6) [formula] where QH is the total liver blood flow, fu is unbound fraction of the drug, and CL′int is defined as follows: CL′int=CLint×(10^6 cells/g of liver weight)×(g liver weight/kg of body weight). In the first approximation, used in this study, fu=1.
(§7) Hepatic extraction ratio EH was calculated using the following equation:
(§8) [formula] Corresponding physiological parameters used in calculations for all species are shown below in Table 3.

CYP3A4 = biological target: T2, CYP3A4 (Homo sapiens, UniProt P08684); assay: CYP profiling: human liver microsomes with CYP3A4 inhibitor ketoconazole; format: in vitro ADME; set-up: % Compound Metabolized at 30 min, CYP3A4 Inhibitor: concentration or dose not given beside the values; conditions: HLMs; for % Inhibition Relative to Negative Control, 3A4: 30 min
T2 construct: from tissue; host or cells: human liver microsomes
Description: In order to investigate the contributions of CYP1A2 and CYP3A4 to the metabolism of the compounds of the present disclosure, human liver microsomes were incubated with the test compounds for 30 minutes in the presence of selective chemical inhibitors furafylline (1A2) and ketoconazole (3A4).

[1] = Hepatocyte intrinsic clearance assay (metabolic stability), human hepatocytes; format: in vitro ADME; conditions: male, human, cryopreserved pooled hepatocytes, Human Hepatocytes, 1 μM test compound
Source text: as §1, §2, §3, §4, §5, §6, §7, §8

T2 sequence (P08684 whole entry): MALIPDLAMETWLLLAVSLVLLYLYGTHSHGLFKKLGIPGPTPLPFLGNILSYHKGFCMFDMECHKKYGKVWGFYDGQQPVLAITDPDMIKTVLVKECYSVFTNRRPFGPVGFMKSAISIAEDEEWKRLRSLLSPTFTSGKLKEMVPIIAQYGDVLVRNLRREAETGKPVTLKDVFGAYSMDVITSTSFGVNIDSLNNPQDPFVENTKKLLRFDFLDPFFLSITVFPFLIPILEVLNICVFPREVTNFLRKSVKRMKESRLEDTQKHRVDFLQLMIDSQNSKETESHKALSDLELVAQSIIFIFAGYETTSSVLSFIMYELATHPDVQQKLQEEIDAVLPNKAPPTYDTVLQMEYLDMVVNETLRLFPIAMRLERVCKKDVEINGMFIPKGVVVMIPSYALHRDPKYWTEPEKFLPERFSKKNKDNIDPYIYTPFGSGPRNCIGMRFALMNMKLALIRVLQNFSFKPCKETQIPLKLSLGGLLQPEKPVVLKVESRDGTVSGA

Compound: CCC(=O)c1csc(C(=O)c2c[nH]c3cc(F)ccc23)n1 [ARI-143, 1-(2-(6-fluoro-1H-indole-3-carbonyl)thiazol-4-yl)propan-1-one]
- EC90 (AhR; Plate 2): 347 nM
- EC50 (AhR; human HepG2 cells, Plate 2): 95.2 nM
- EH (hepatic extraction ratio) (human hepatocytes): 26.1% and 25.5% and 25.7%
- % Compound Metabolized at 30 min, CYP3A4 Inhibitor (CYP3A4): 82% and 92%
- % Inhibition Relative to Negative Control, 3A4 (CYP3A4): None

Compound: CC[C@H](O)c1csc(C(=O)c2c[nH]c3cc(F)ccc23)n1 [ARI-164, (S)-(6-Fluoro-1H-indol-3-yl)(4-(1-hydroxypropyl)thiazol-2-yl)methanone]
- EC90 (AhR; Plate 1): 134 nM
- EC90 (AhR; Plate 2): 138 nM
- EC50 (AhR; human HepG2 cells, Plate 1): 104 nM
- EC50 (AhR; human HepG2 cells, Plate 2): 104 nM
- half-life at 1 μM [1]: 0.7 h
- hepatocyte CLint at 1 μM [1]: 15.7 µL/min/1e6 cells
- CLint (human hepatocytes): 13.556 μL/min/10^6 cells and 15.446 μL/min/10^6 cells and 13.712 μL/min/10^6 cells and 15.383 μL/min/10^6 cells
- EH (hepatic extraction ratio) (human hepatocytes): 25.3% and 24.6% and 25.2% and 19.9%
- % Compound Metabolized at 30 min, CYP3A4 Inhibitor (CYP3A4): 34%
- % Inhibition Relative to Negative Control, 3A4 (CYP3A4): 8%

Compound: CC[C@H](N)c1csc(C(=O)c2c[nH]c3cc(F)ccc23)n1 [ARI-186, (S)-(4-(1-aminopropyl)thiazol-2-yl)(6-fluoro-1H-indol-3-yl)methanone]
- EC90 (AhR; Plate 1): 7.4 nM
- fold more potent than ARI-164 by EC50 (AhR; human HepG2 cells): 17.8 ×
- fold more potent than ARI-164 by EC90 (AhR; human HepG2 cells): 18.0 ×
- fold more potent than ARI-187 by EC50 (AhR; human HepG2 cells): 9.5 × and 9.6 ×
- fold more potent than ARI-187 by EC90 (AhR; human HepG2 cells): 20.5 × and 20.6 ×
- EC50 (AhR; human HepG2 cells, Plate 1): 5.8 nM
- half-life at 1 μM [1]: 7.9 h
- hepatocyte CLint at 1 μM [1]: 1.5 µL/min/1e6 cells
- CLint (human hepatocytes): 1.453 μL/min/10^6 cells
- EH (hepatic extraction ratio) (human hepatocytes): 8.7%
- CLint lower than that of ARI-164 (fold improvement) (human hepatocytes; human hepatocytes): 10.8 ×
- % Compound Metabolized at 30 min, CYP3A4 Inhibitor (CYP3A4): 12%
- % Inhibition Relative to Negative Control, 3A4 (CYP3A4): 8%

Compound: CC[C@@H](N)c1csc(C(=O)c2c[nH]c3cc(F)ccc23)n1 [ARI-187, (R)-(4-(1-aminopropyl)thiazol-2-yl)(6-fluoro-1H-indol-3-yl)methanone]
- EC90 (AhR; Plate 1): 152 nM
- EC50 (AhR; human HepG2 cells, Plate 1): 55.6 nM
- half-life at 1 μM [1]: 18.6 h
- hepatocyte CLint at 1 μM [1]: 0.621 µL/min/1e6 cells
- EH (hepatic extraction ratio) (human hepatocytes): 4.4%
- % Compound Metabolized at 30 min, CYP3A4 Inhibitor (CYP3A4): 3%
- % Inhibition Relative to Negative Control, 3A4 (CYP3A4): 25%

Compound: O=C(c1nc([C@@H](O)C(F)(F)F)cs1)c1c[nH]c2cc(F)ccc12 [ARI-211]
- EC90 (AhR; Plate 1): 183 nM
- EC50 (AhR; human HepG2 cells, Plate 1): 35.9 nM
- half-life at 1 μM [1]: 1 h
- hepatocyte CLint at 1 μM [1]: 11.3 µL/min/1e6 cells
- EH (hepatic extraction ratio) (human hepatocytes): 23.6%
- % Compound Metabolized at 30 min, CYP3A4 Inhibitor (CYP3A4): 59%
- % Inhibition Relative to Negative Control, 3A4 (CYP3A4): None

Compound: O=C(c1nc([C@H](O)C(F)(F)F)cs1)c1c[nH]c2cc(F)ccc12 [ARI-212]
- EC90 (AhR; Plate 1): 150 nM
- EC50 (AhR; human HepG2 cells, Plate 1): 21.9 nM
- half-life at 1 μM [1]: 0.3 h
- hepatocyte CLint at 1 μM [1]: 44.1 µL/min/1e6 cells
- EH (hepatic extraction ratio) (human hepatocytes): 28.9%
- % Compound Metabolized at 30 min, CYP3A4 Inhibitor (CYP3A4): 24%
- % Inhibition Relative to Negative Control, 3A4 (CYP3A4): 44%

Compound: CC[C@H](N)c1csc(C(=O)c2c[nH]c3ccc(F)cc23)n1 [ARI-218]
- EC90 (AhR; Plate 2): 7.9 nM
- fold more potent than ARI-219 by EC50 (AhR; human HepG2 cells): 19.7 ×
- fold more potent than ARI-219 by EC90 (AhR; human HepG2 cells): 53 ×
- EC50 (AhR; human HepG2 cells, Plate 2): 6.3 nM
- half-life at 1 μM [1]: 1.3 h
- hepatocyte CLint at 1 μM [1]: 9.16 µL/min/1e6 cells
- EH (hepatic extraction ratio) (human hepatocytes): 22.2%
- % Compound Metabolized at 30 min, CYP3A4 Inhibitor (CYP3A4): 0%
- % Inhibition Relative to Negative Control, 3A4 (CYP3A4): 100%

Compound: CC[C@@H](N)c1csc(C(=O)c2c[nH]c3ccc(F)cc23)n1 [ARI-219]
- EC90 (AhR; Plate 2): 419 nM
- EC50 (AhR; human HepG2 cells, Plate 2): 124 nM
- half-life at 1 μM [1]: 5.3 h
- hepatocyte CLint at 1 μM [1]: 2.17 µL/min/1e6 cells
- EH (hepatic extraction ratio) (human hepatocytes): 11.5%
- % Compound Metabolized at 30 min, CYP3A4 Inhibitor (CYP3A4): 23%
- % Inhibition Relative to Negative Control, 3A4 (CYP3A4): None

Compound: CC(C)(O)c1csc(C(=O)c2c[nH]c3cc(F)ccc23)n1 [ARI-220, (6-fluoro-1H-indol-3-yl)(4-(2-hydroxypropan-2-yl)thiazol-2-yl)methanone]
- EC90 (AhR; Plate 2): 476 nM
- EC50 (AhR; human HepG2 cells, Plate 2): 372 nM
- half-life at 1 μM [1]: 1.4 h
- hepatocyte CLint at 1 μM [1]: 8.33 µL/min/1e6 cells
- EH (hepatic extraction ratio) (human hepatocytes): 21.6%
- % Compound Metabolized at 30 min, CYP3A4 Inhibitor (CYP3A4): 27%
- % Inhibition Relative to Negative Control, 3A4 (CYP3A4): 34%

Compound: O=C(c1nc(C2(O)CC2)cs1)c1c[nH]c2cc(F)ccc12 [ARI-221, (6-fluoro-1H-indol-3-yl)(4-(1-hydroxycyclopropyl)thiazol-2-yl)methanone]
- EC90 (AhR; Plate 2): 34.5 nM
- EC50 (AhR; human HepG2 cells, Plate 2): 26.1 nM
- half-life at 1 μM [1]: 0.5 h
- hepatocyte CLint at 1 μM [1]: 25.3 µL/min/1e6 cells
- EH (hepatic extraction ratio) (human hepatocytes): 27.3%
- % Compound Metabolized at 30 min, CYP3A4 Inhibitor (CYP3A4): 82%
- % Inhibition Relative to Negative Control, 3A4 (CYP3A4): 14%
